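96-well plates; 48 h exposure; 5 concentrations. Endpoints by linear interpolation between flanking doses. Not reached: highest tested concentration assigned. Abbreviation: GI50, concentration required for 50% inhibition of growth. At the TGI there is no net growth.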
How the values were obtained:
Experiment in all cases: NCI-60 cell line screen, 48 h
MALME-3M melanoma = test system: MALME-3M melanoma
U251 CNS = test system: U251 CNS
SN12C renal = test system: SN12C renal
OVCAR-8 ovarian = test system: OVCAR-8 ovarian
TK-10 renal = test system: TK-10 renal
IGROV1 ovarian = test system: IGROV1 ovarian
RPMI-8226 leukemia = test system: RPMI-8226 leukemia
UACC-257 melanoma = test system: UACC-257 melanoma
MDA-MB-435 = test system: MDA-MB-435
MCF7 breast = test system: MCF7 breast

Row | Compound | TGI (MALME-3M melanoma) [µM] | TGI (U251 CNS) [µM] | TGI (SN12C renal) [µM] | TGI (OVCAR-8 ovarian) [µM] | TGI (TK-10 renal) [µM] | TGI (IGROV1 ovarian) [µM] | TGI (RPMI-8226 leukemia) [µM] | TGI (UACC-257 melanoma) [µM] | TGI (MDA-MB-435) [µM] | GI50 (MALME-3M melanoma) [µM] | GI50 (U251 CNS) [µM] | GI50 (MCF7 breast) [µM] | TGI (MCF7 breast) [µM] | GI50 (SN12C renal) [µM] | GI50 (UACC-257 melanoma) [µM] | GI50 (OVCAR-8 ovarian) [µM] | GI50 (MDA-MB-435) [µM] | GI50 (TK-10 renal) [µM] | GI50 (IGROV1 ovarian) [µM] | GI50 (RPMI-8226 leukemia) [µM]
1 | CCOC(=O)C/C(N)=C(\C#N)C(=O)OCC | > 100 | > 100 | > 100 | > 100 | > 100 | > 100 | > 100 |  |  |  |  |  |  |  |  |  |  |  |  | 
2 | Cc1nn2c(=O)n(-c3cccc(-n4nnc5c(-c6ccccc6)c(C)nn5c4=O)c3C)nnc2c1-c1ccccc1 | 56 | > 100 | 36.5 | > 100 | > 100 | > 100 | 96.4 | 70.2 |  |  |  |  |  |  |  |  |  |  |  | 
3 | O=C1C=CC(=O)c2c1cc1ccccc1c2O | 17.2 | 27.1 | 25.2 | 8.96 | 11 | 15.6 | > 26 | 7.91 | 19.2 |  |  |  |  |  |  |  |  |  |  | 
4 | O=S1c2ccccc2N=C(c2ccc3ccccc3c2)CC1c1ccccc1F (centres undefined) | > 100 | > 100 | > 100 | > 100 | > 100 | > 100 | > 100 | > 100 |  |  |  |  |  |  |  |  |  |  |  | 
5 | c1cc2ccc3cc2cc1CNCCOCCNCc1ccc2ccc(cc2c1)CNCCOCCNC3 | > 100 | > 100 | > 100 | > 100 | > 100 | > 100 |  | > 100 | > 100 | > 100 | > 100 | > 100 | > 100 | > 100 | > 100 | > 100 | > 100 | > 100 | > 100 | 
6 | NC(=O)c1ccccc1NC(=O)C(=O)Nc1n[nH]c(N)n1 | > 100 | > 100 | > 100 | > 100 | > 100 | > 100 | > 100 | > 100 |  |  |  |  |  |  |  |  |  |  |  | 
7 | CC(N)CN.CC(N)CN.[Cl-].[O]=[Os+2]=[O] (centres undefined) | > 100 | > 100 | > 100 | > 100 | > 100 | > 100 | > 100 |  |  | > 100 | > 100 |  |  | > 100 |  | 96.2 |  | > 100 | > 100 | 40.3
8 | Nc1ncnc2c1nc(N)n2C1OC(CO)C(O)C1O (centres undefined) |  | 7.06 | 3.21 | 2.98 |  | 0.863 | 6.48 | 0.857 | 0.773 |  | 1.35 | 0.389 | 10.4 | 0.418 | 0.229 | 0.63 | 0.153 | 0.458 | 0.238 | 0.973
9 | COc1ccc(C2c3cc4c(c(OC)c3CC3OCC(=O)C32)OCO4)cc1OC (centres undefined) |  | > 100 | > 100 | 46.9 | > 100 | > 100 |  |  | > 100 |  | < 0.01 |  |  |  |  | < 0.01 |  |  |  | 
10 | COc1ccc(/C=C/c2ccnc3ccccc23)cc1 | 30.6 | 31.9 | 32.7 |  | 31.7 | 32.5 | 45 | 31.4 | 31.2 |  |  |  | 31.4 |  |  |  |  |  |  | 
11 | CN(C(=O)C12C3C4C1C1C2C3C41C(=O)N(C)C(C)(C)C)C(C)(C)C (centres undefined) | > 50 | > 50 | > 50 | > 50 |  | > 50 |  |  |  |  |  |  |  |  |  |  |  |  |  | 
12 | O=c1c2cc(Br)ccc2[nH]c(=S)n1-c1ccccc1 | > 100 | > 100 | > 100 | > 100 | > 100 | > 100 | > 100 | > 100 |  |  |  |  |  |  |  |  |  |  |  | 
13 | O=c1[nH]cc(CO)c(=O)[nH]1 | > 100 | > 100 | > 100 | > 100 | > 100 | > 100 |  | > 100 | > 100 | > 100 | > 100 | > 100 | > 100 | > 100 | > 100 | > 100 | > 100 | > 100 | > 100 | 
14 | Cc1ccc(NC(C(=O)c2ccccc2)c2ccccc2)cc1 (centres undefined) | 9.52 | 25.1 | > 100 | > 100 |  | 22.6 | 14.6 | 8.42 | 12.7 | 2.42 | 4.24 | 3.79 | 40.7 | 3.55 | 2.8 | 3.52 | 2.63 |  | 2.11 | 2.71
15 | O=C(O)/C(=C/c1ccccc1[N+](=O)[O-])c1cccs1 |  | > 100 | > 100 | > 100 | > 100 | > 100 | > 100 | > 100 |  |  |  |  |  |  |  |  |  |  |  | 
16 | COc1ccc(-c2nnc(Nc3nc(O)c(C4=c5cc(OC(F)(F)F)ccc5=NC4=O)s3)o2)cc1 |  | 30.7 | 40.5 | 99.5 | 58.2 | 60.7 | 37.2 | 35.9 | > 100 |  | 12.4 | 39.7 | > 100 | 16.5 | 13.2 | 22.7 | 7.46 | 20.5 | 22 | 14.2
17 | CCOc1ccc(/C=N\N2C(=O)c3ccccc3C2=O)cc1 | > 100 |  | > 100 | > 100 | > 100 | > 100 | > 100 | > 100 |  |  |  |  |  |  |  |  |  |  |  | 
18 | CC1(C)C(=O)CCC(=O)C(C)(C)C2=CC=C(O2)C(C)(C)C(=O)CCC(=O)C(C)(C)C2=CC=C1O2 | > 100 | > 100 |  | > 100 | > 100 | > 100 |  | > 100 |  |  |  |  |  |  |  |  |  |  |  | 
19 | CC(=O)NC1CCCN(O)C(=O)/C=C(/C)CCOC(=O)C(NC(C)=O)CCCN(O)C(=O)/C=C(/C)CCOC(=O)C(NC(C)=O)CCCN(O)C(=O)/C=C(/C)CCOC1=O.[Fe] (centres undefined) |  | > 100 | > 100 | > 100 | > 100 | > 100 | > 100 | > 100 | > 100 |  | > 100 | > 100 | > 100 | > 100 | > 100 | > 100 | > 100 | > 100 | > 100 | > 100
20 | CC(C)(C)C1CCC(CI)(N=[N+]=[N-])CC1 (centres undefined) | > 100 | > 100 | > 100 | > 100 | > 100 | > 100 | > 100 | > 100 |  |  |  |  |  |  |  |  |  |  |  | 
